In ChEMBL document CHEMBL1201862, “PubChem BioAssay data set” (2004):
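Dose response: 5 concentrations. Exposure: 48 h. Format: 96-well plates. Endpoint: linear interpolation; highest concentration if not reached. GI50: concentration for 50% inhibition of growth.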 Calls of active or inactive are those of the source. No stated cut-off is given here; in the data, active = GI50 up to about 1.1 µM and inactive = higher.

Key:
Assay in all cases: inhibition of tumour cell growth, NCI panel, 48 h
[1] = test system: CAKI-1
[2] = test system: CCRF-CEM
[3] = test system: EKVX
[4] = test system: M14
[5] = test system: MDA-MB-231
[6] = test system: MDA-N
[7] = test system: MOLT-4
[8] = test system: Malme-3M
[9] = test system: NCI-H226
[10] = test system: OVCAR-4
[11] = test system: SF-268
[12] = test system: SK-MEL-2
[13] = test system: SK-MEL-5
[14] = test system: SK-OV-3
[15] = test system: SN12C
[16] = test system: SNB-19
[17] = test system: TK-10
[18] = test system: UACC-257

Measured: GI50

CC(=O)/C=C(/C=N/O)c1ccccc1
inactive: [1] > 100 µM | [2] > 100 µM | [3] > 100 µM | [4] > 100 µM | [5] > 100 µM | [6] > 100 µM | [7] > 100 µM | [8] > 100 µM | [9] > 100 µM | [10] > 100 µM | [11] > 100 µM | [12] 56.5 µM | [13] > 100 µM | [14] > 100 µM | [15] > 100 µM | [16] > 100 µM | [17] > 100 µM | [18] > 100 µM

Cc1ccc(S(=O)(=O)c2ccsc2NC(=O)C(F)(F)F)cc1
inactive: [1] 34.9 µM | [3] 46.6 µM | [4] 43.4 µM | [5] 24.5 µM | [6] 23.6 µM | [7] 18.5 µM | [8] 40.7 µM | [9] 39.7 µM | [10] 20.6 µM | [11] 28.3 µM | [12] 26.3 µM | [13] 20.2 µM | [14] 36.8 µM | [15] 25.2 µM | [16] 65 µM | [17] 61.1 µM | [18] 30.3 µM

Cc1cc2c3ccccc3[nH]c2c2ccnc(C)c12
inactive: [1] 19 µM | [2] 2.29 µM | [3] 1.49 µM | [4] 1.84 µM | [5] 4.08 µM | [6] 1.71 µM | [7] 7.16 µM | [8] 13.5 µM | [9] 13.4 µM | [10] > 100 µM | [11] 17.6 µM | [12] 8.63 µM | [13] 4.78 µM | [14] 14.2 µM | [15] 5.56 µM | [16] 18.6 µM | [17] 14.2 µM | [18] 18.2 µM

COc1cc2oc(=O)ccc2cc1C(=O)CC(C)C
inactive: [1] 22.9 µM | [2] > 100 µM | [3] 94.8 µM | [4] > 100 µM | [5] > 100 µM | [6] > 100 µM | [7] 57.8 µM | [9] 28.6 µM | [10] 71.1 µM | [11] 99.3 µM | [12] > 100 µM | [13] > 100 µM | [14] > 100 µM | [15] > 100 µM | [16] 56.1 µM | [17] > 100 µM | [18] > 100 µM

O=C1N(CN2CCOCC2)CN(CN2CCOCC2)C(=O)N1Cc1ccc(CN2C(=O)N(CN3CCOCC3)CN(CN3CCOCC3)C2=O)cc1
inactive: [1] 38.3 µM | [2] 62.1 µM | [3] > 100 µM | [4] 28.2 µM | [5] 57.9 µM | [6] 31.7 µM | [7] 35.2 µM | [9] > 100 µM | [10] 35.7 µM | [11] 28.4 µM | [12] 20.6 µM | [13] > 100 µM | [14] > 100 µM | [15] 59.8 µM | [16] 97.7 µM | [17] > 100 µM | [18] 52.2 µM

CCOC(OCC)[C@H](N)[C@@H](O)[C@@H](O)[C@H]1COC(C)(C)O1
inactive: [2] > 100 µM | [3] > 100 µM | [4] > 100 µM | [5] > 100 µM | [6] > 100 µM | [7] > 100 µM | [8] > 100 µM | [9] > 100 µM | [10] > 100 µM | [11] > 100 µM | [12] > 100 µM | [13] > 100 µM | [14] > 100 µM | [15] > 100 µM | [16] > 100 µM | [17] > 100 µM | [18] > 100 µM

O=C(O)Cn1ccc(=O)c2cc([N+](=O)[O-])ccc21
inactive: [1] > 100 µM | [2] > 100 µM | [4] > 100 µM | [5] 19.4 µM | [6] > 100 µM | [7] > 100 µM | [8] > 100 µM | [9] > 100 µM | [11] > 100 µM | [12] > 100 µM | [13] > 100 µM | [14] > 100 µM | [15] > 100 µM | [16] > 100 µM | [17] > 100 µM | [18] > 100 µM

Nc1nc(Cl)cc(Nc2ccc3c(c2)CCC3)n1
inactive: [1] 30.1 µM | [2] 44.3 µM | [3] 32.1 µM | [4] > 100 µM | [5] 52 µM | [6] > 100 µM | [7] 2.45 µM | [8] > 100 µM | [9] > 100 µM | [10] > 100 µM | [11] > 100 µM | [12] > 100 µM | [13] 91.4 µM | [14] > 100 µM | [15] 80.2 µM | [16] > 100 µM | [17] 65 µM | [18] > 100 µM
